Assay results taken from ChEMBL document CHEMBL2057131, “Novel steroid inhibitors of glucose 6-phosphate dehydrogenase” (J Med Chem, 2012).
≈ marks a conversion by molar mass, not a printed value.

Legend:
[1] = Aqueous solubility of the compound in phosphate buffer by turbidimetric method; type: physicochemical
[2] = biological target: T1, Glucose-6-phosphate 1-dehydrogenase (Homo sapiens, UniProt P11413); assay: Inhibition of human recombinant N-terminal His tagged G6PD expressed in Escherichia coli JM109 (DE3) cells assessed as production of NADPH after 30 mins by Amplite fluorimetric assay
T1 sequence (P11413 whole entry): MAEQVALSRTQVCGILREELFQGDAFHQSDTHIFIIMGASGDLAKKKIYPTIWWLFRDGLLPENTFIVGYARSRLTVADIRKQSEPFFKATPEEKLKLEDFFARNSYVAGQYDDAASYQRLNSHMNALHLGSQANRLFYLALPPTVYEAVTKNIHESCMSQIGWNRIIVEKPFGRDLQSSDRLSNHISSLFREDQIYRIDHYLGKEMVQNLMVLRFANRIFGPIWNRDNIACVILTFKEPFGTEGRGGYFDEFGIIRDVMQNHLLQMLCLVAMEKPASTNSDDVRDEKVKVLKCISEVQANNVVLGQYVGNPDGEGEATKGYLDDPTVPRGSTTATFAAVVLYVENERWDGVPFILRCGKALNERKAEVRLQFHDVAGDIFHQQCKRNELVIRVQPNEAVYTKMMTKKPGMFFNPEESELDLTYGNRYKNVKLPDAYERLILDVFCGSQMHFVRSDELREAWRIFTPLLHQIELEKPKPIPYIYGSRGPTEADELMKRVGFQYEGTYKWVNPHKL

[3] = Efflux ratio of permeability of the compound from basolateral to apical side over apical to basolateral side of human Caco2 cells; type: ADME, cell-based; settings: Caco-2
[4] = biological target: T1, Glucose-6-phosphate 1-dehydrogenase; assay: Ratio of IC50 for G6PD in HEK293T cells to IC50 for human recombinant G6PD expressed in Escherichia coli JM109 (DE3) cells; settings: HEK-293T
[5] = biological target: T1, Glucose-6-phosphate 1-dehydrogenase; assay: Inhibition of G6PD in HEK293T cells assessed as accumulation of 6-phosphogluconate after 5 hrs by LC-MS/MS analysis using 6-aminonicotinamide; type: cell-based, HEK-293T
[6] = Permeability of the compound from apical to basolateral side of human Caco2 cells; type: ADME, cell-based; settings: Caco-2, read-out: permeability

CC(=O)[C@H]1CC[C@H]2[C@@H]3CC[C@H]4C[C@@H](NS(N)(=O)=O)CC[C@]4(C)[C@H]3CC[C@]12C
solubility kinetic [1]: 10 µM (≈ 3.97 µg/mL) | IC50 [2]: 2 µM | efflux ratio [3]: 0.53 | Ratio IC50 [4]: 4.6 | IC50 [5]: 9.2 µM | Papp A→B [6]: 2.1 ×10⁻⁶ cm/s

C[C@]12CC[C@@H](NS(C)(=O)=O)C[C@@H]1CC[C@@H]1[C@@H]2CC[C@]2(C)C(=O)CC[C@@H]12
IC50 [2]: > 200 µM

C[C@]12CC[C@H](O)C[C@@H]1CC[C@@H]1[C@@H]2CC[C@]2(C)/C(=N/O)CC[C@@H]12
IC50 [2]: > 200 µM

C[C@]12CC[C@H](NS(C)(=O)=O)C[C@@H]1CC[C@@H]1[C@@H]2CC[C@]2(C)[C@@H](C(=O)CO)CC[C@@H]12
solubility kinetic [1]: 10 µM (≈ 4.12 µg/mL) | IC50 [2]: 3.8 µM | efflux ratio [3]: 0.3 | Ratio IC50 [4]: 9.2 | IC50 [5]: 35.2 µM | Papp A→B [6]: 17.4 ×10⁻⁶ cm/s

CNC(=O)N[C@H]1CC[C@@]2(C)[C@@H](CC[C@@H]3[C@@H]2CC[C@]2(C)C(=O)CC[C@@H]32)C1
IC50 [2]: 12.2 µM

C[C@]12CC[C@@H](O)C[C@@H]1CC[C@@H]1[C@@H]2CC[C@]2(C)[C@@H](C(=O)CO)CC[C@@H]12
IC50 [2]: 31.6 µM

C[C@]12CC[C@H](O)C[C@@H]1CC[C@@H]1[C@@H]2CC[C@]2(C)[C@@H](C(=O)CCl)CC[C@@H]12
IC50 [2]: 9.3 µM

C[C@]12CC[C@H](O)CC1=CC[C@@H]1[C@@H]2CC[C@]2(C)C(=O)[C@H](O)C[C@@H]12
IC50 [2]: 15.8 µM

COC(=O)N[C@H]1CC[C@@]2(C)[C@@H](CC[C@@H]3[C@@H]2CC[C@]2(C)[C@@H](C(C)=O)CC[C@@H]32)C1
IC50 [2]: > 200 µM

C[C@]12CC[C@H](O)C[C@@H]1CC[C@@H]1[C@@H]2CC[C@]2(C)C(=O)CC[C@@H]12 [EPIANDROSTERONE]
IC50 [2]: 9.4 µM

C/C(=N/O)[C@H]1CC[C@H]2[C@@H]3CC[C@H]4C[C@@H](O)CC[C@]4(C)[C@H]3CC[C@]12C
IC50 [2]: > 200 µM

CC(=O)[C@H]1CC[C@H]2[C@@H]3CC[C@H]4C[C@@H](O)CC[C@]4(C)[C@H]3C(=O)C[C@]12C
IC50 [2]: 15.8 µM

CC(=O)[C@H]1CC[C@H]2[C@@H]3CC[C@H]4C[C@@H](NS(=O)(=O)c5ccccc5)CC[C@]4(C)[C@H]3CC[C@]12C
IC50 [2]: 20.3 µM

CC(=O)[C@H]1CC[C@H]2[C@@H]3CC[C@H]4C[C@@H](NS(=O)(=O)N(C)C)CC[C@]4(C)[C@H]3CC[C@]12C
IC50 [2]: 37.8 µM

CCS(=O)(=O)N[C@H]1CC[C@@]2(C)[C@@H](CC[C@@H]3[C@@H]2CC[C@]2(C)C(=O)CC[C@@H]32)C1
IC50 [2]: 70.5 µM

C[C@]12CC[C@H](O)CC1=CC[C@@H]1[C@@H]2CC[C@@]2(C)[C@H]1CC[C@@]21CO1
IC50 [2]: > 200 µM

CCNC(=O)NC1CC[C@@]2(C)[C@@H](CC[C@@H]3[C@@H]2CC[C@]2(C)[C@@H](C(=O)CO)CC[C@@H]32)C1 (stereo not given in full)
IC50 [2]: 34.9 µM

CC(=O)[C@@]1(O)CC[C@H]2[C@@H]3CC[C@H]4C[C@@H](O)CC[C@]4(C)[C@H]3C(=O)C[C@@]21C
IC50 [2]: 47 µM

C[C@]12CC[C@H](O)C[C@@H]1CC[C@@H]1[C@@H]2CC[C@@]2(C)[C@H]1CC[C@@]21CO1
IC50 [2]: > 200 µM

CN(C)C(=O)N[C@H]1CC[C@@]2(C)[C@@H](CC[C@@H]3[C@@H]2CC[C@]2(C)C(=O)CC[C@@H]32)C1
IC50 [2]: > 200 µM

CC(=O)[C@H]1CC[C@H]2[C@@H]3CC[C@H]4C[C@@H](NC(N)=O)CC[C@]4(C)[C@H]3CC[C@]12C
IC50 [2]: > 100 µM

C[C@]12CC[C@H](O)C[C@@H]1CC[C@@H]1[C@@H]2CC[C@]2(C)[C@@H](C(=O)CBr)CC[C@@H]12
IC50 [2]: 2.5 µM

C[C@]12CC[C@H](O)C[C@@H]1CC[C@@H]1[C@@H]2CC[C@@]2(C)[C@H]1CC[C@]2(O)C(=O)CO
IC50 [2]: 5.2 µM

C[C@]12CC[C@H]3[C@@H](CC=C4C[C@@H](O)CC[C@@]43C)[C@@H]1CC[C@@H]2C(=O)CO
IC50 [2]: 5.3 µM

CO[C@]1(C(C)=O)CC[C@H]2[C@@H]3CC[C@H]4C[C@@H](O)CC[C@]4(C)[C@H]3CC[C@@]21C
IC50 [2]: > 200 µM

C[C@]12CCCC[C@@H]1CC[C@@H]1[C@@H]2CC[C@]2(C)C(=O)CC[C@@H]12
IC50 [2]: > 200 µM

C[C@]12CC[C@H](O)C[C@@H]1CC[C@@H]1[C@@H]2CC[C@@]2(C)[C@H]1CC[C@@]21CCO1
IC50 [2]: > 200 µM

CC(=O)N[C@H]1CC[C@@]2(C)[C@@H](CC[C@@H]3[C@@H]2CC[C@]2(C)[C@@H](C(C)=O)CC[C@@H]32)C1
IC50 [2]: > 200 µM

C[C@]12CC[C@H](NS(=O)(=O)c3ccccc3)C[C@@H]1CC[C@@H]1[C@@H]2CC[C@]2(C)C(=O)CC[C@@H]12
IC50 [2]: 9.9 µM

CC(=O)[C@H]1CC[C@H]2[C@@H]3CC[C@H]4C[C@@H](NC(=O)N(C)C)CC[C@]4(C)[C@H]3CC[C@]12C
IC50 [2]: > 200 µM

CCCCNC(=O)N[C@H]1CC[C@@]2(C)[C@@H](CC[C@@H]3[C@@H]2CC[C@]2(C)C(=O)CC[C@@H]32)C1
IC50 [2]: 1.7 µM

CC(=O)[C@H]1CC[C@H]2[C@@H]3CC[C@H]4C[C@@H](N)CC[C@]4(C)[C@H]3CC[C@]12C
IC50 [2]: > 200 µM

C[C@]12CC[C@H](O)C[C@@H]1CC[C@H]1[C@@H]3CC[C@H](C(=O)CO)[C@@]3(C)CC(=O)[C@@H]12
IC50 [2]: 6.3 µM

CC(=O)C[C@H]1CC[C@H]2[C@@H]3CC[C@H]4C[C@@H](O)CC[C@]4(C)[C@H]3CC[C@]12C
IC50 [2]: > 200 µM

CC(=O)[C@H]1CC[C@H]2[C@@H]3CC=C4C[C@@H](O)CC[C@]4(C)[C@H]3CC[C@]12C [PREGNENOLONE]
IC50 [2]: 81.4 µM

CCS(=O)(=O)N[C@H]1CC[C@@]2(C)[C@@H](CC[C@@H]3[C@@H]2CC[C@]2(C)[C@@H](C(C)=O)CC[C@@H]32)C1
IC50 [2]: 11 µM

CC(=O)[C@H]1CC[C@H]2[C@@H]3CC[C@H]4C[C@H](O)CC[C@]4(C)[C@H]3CC[C@]12C [BREXANOLONE]
IC50 [2]: 66 µM

C[C@]12CC[C@H](O)C[C@@H]1CC[C@@H]1[C@@H]2CC[C@]2(C)C(=O)[C@H](Br)C[C@@H]12 [16.ALPHA.-BROMOEPIANDROSTERONE]
IC50 [2]: 20.8 µM

C[C@]12CC[C@@H](O)C[C@@H]1CC[C@@H]1[C@@H]2CC[C@]2(C)C(=O)CC[C@@H]12 [ANDROSTERONE]
IC50 [2]: > 200 µM

C[C@]12CC[C@H](O)CC1=CC[C@@H]1[C@@H]2CC[C@]2(C)C(=O)CC[C@@H]12 [PRASTERONE]
solubility kinetic [1]: > 100 µM | IC50 [2]: 11.3 µM | Ratio IC50 [4]: 2.2 | IC50 [5]: 24.9 µM

C[C@]12CC[C@H](N)C[C@@H]1CC[C@@H]1[C@@H]2CC[C@]2(C)C(=O)CC[C@@H]12
IC50 [2]: > 200 µM

CC(=O)[C@@]12O[C@@H]1C[C@H]1[C@@H]3CC[C@H]4C[C@@H](O)CC[C@]4(C)[C@H]3CC[C@@]12C
IC50 [2]: > 200 µM

COC(=O)N[C@H]1CC[C@@]2(C)[C@@H](CC[C@@H]3[C@@H]2CC[C@]2(C)C(=O)CC[C@@H]32)C1
solubility kinetic [1]: > 100 µM | IC50 [2]: 1.5 µM | Ratio IC50 [4]: 5.2 | IC50 [5]: 7.8 µM

CCNC(=O)N[C@@H]1CC[C@@]2(C)[C@@H](CC[C@@H]3[C@@H]2CC[C@]2(C)C(=O)CC[C@@H]32)C1
IC50 [2]: > 200 µM

C[C@]12CC[C@H](NS(C)(=O)=O)C[C@@H]1CC[C@@H]1[C@@H]2CC[C@]2(C)C(=O)CC[C@@H]12
IC50 [2]: 6.6 µM

C[C@]12CC[C@@H](N)C[C@@H]1CC[C@@H]1[C@@H]2CC[C@]2(C)C(=O)CC[C@@H]12
IC50 [2]: > 200 µM

C[C@]12CC[C@H](NC(N)=O)C[C@@H]1CC[C@@H]1[C@@H]2CC[C@]2(C)C(=O)CC[C@@H]12
IC50 [2]: 5 µM

CC(=O)[C@H]1CC[C@H]2[C@@H]3CC[C@H]4C[C@@H](O)CC[C@]4(C)[C@H]3CC[C@]12C [SEPRANOLONE]
IC50 [2]: 4.3 µM

CC(=O)OCC(=O)[C@H]1CC[C@H]2[C@@H]3CC[C@H]4C[C@@H](O)CC[C@]4(C)[C@H]3CC[C@]12C
IC50 [2]: > 200 µM

CC(=O)N[C@H]1CC[C@@]2(C)[C@@H](CC[C@@H]3[C@@H]2CC[C@]2(C)C(=O)CC[C@@H]32)C1
IC50 [2]: 128 µM

C[C@]12CC[C@H](O)CC1=CC[C@@H]1[C@@H]2CC[C@@]2(C)[C@H]1CC[C@@]21CCO1
IC50 [2]: > 200 µM

C[C@]12CC[C@H](NS(N)(=O)=O)C[C@@H]1CC[C@@H]1[C@@H]2CC[C@]2(C)C(=O)CC[C@@H]12
solubility kinetic [1]: 30 µM (≈ 11.1 µg/mL) | IC50 [2]: 1.2 µM | efflux ratio [3]: 0.66 | Ratio IC50 [4]: 14.5 | IC50 [5]: 17.4 µM | Papp A→B [6]: 31.8 ×10⁻⁶ cm/s

C[C@]12CC[C@@H](NS(N)(=O)=O)C[C@@H]1CC[C@@H]1[C@@H]2CC[C@]2(C)C(=O)CC[C@@H]12
IC50 [2]: > 200 µM

COC(=O)N[C@H]1CC[C@@]2(C)[C@@H](CC[C@@H]3[C@@H]2CC[C@]2(C)[C@@H](C(=O)CO)CC[C@@H]32)C1
IC50 [2]: 41.6 µM
